The values below come from US12491199B2, “Polycannabinoids, compounds, compositions and methods of use” (priority 2020, dated 2025).

Entries after “also recorded” stand apart in the source; their conditions may differ. Where two headings read alike, the source gives them in different places.

What all share (type): physicochemical
A short description of data set [1]: Non-isothermal thermogravimetric analysis (TGA), onset of thermal degradation. How it is done:
(§1) Materials and Methods: Cannabidiol (CBD) was purchased from EcoGen BioSciences and used as received. Cannabigerol (CBG) was purchased from Mile High Labs, Inc and used as received. All other chemicals were purchased from Sigma Aldrich and used without further purification unless otherwise noted. Unless otherwise indicated, ^1H NMR was collected using a Bruker AVANCE 500 MHz instrument. Thermo Gravimetric Analysis was conducted using a TA Instruments TGA Q-500 and DSC was collected using a TA Instruments DSC Q-20. GPC was taken using a WATERS GPC equipped with a 1515 HPLC Pump and Waters 717Plus Autoinjector. Ultra Performance Liquid Chromatograph tandem Mass Spectrometry (UPLC/MS/MS) was conducted using a Waters Acquity UPLC-TQD equipped with a PDA detector.
Thermogravimetric Analysis (TGA): Non-Isothermal degradation: Samples were heated in pre-tared platinum pans under nitrogen atmosphere to 700° C. at a heating rate of 10° C./minute.

Data set [2] is described as follows: Heat induced by-product analysis (open vials, 175° C., 30 minutes, convection oven; NMR, UPLC/MS/MS). Particulars: for remaining residue after heating: 100 mg sample, open vial, convection oven; for remaining residue after heating / NMR analysis of the sample residues after heating / amount of by-product formation (LC/MS): 175° C., 30 minutes. Here is the method:
Heat induced by-product analysis experiment: Open vials containing 100 mg of CBD, CBD-Diacetate, and Poly(CBD) were heated at 175° C. for 30 minutes in a laboratory convection oven. After heating, the remaining residue was weighed at 89.64 mg, 91.35 mg, and 99.86 mg for each compound, respectively. Samples were then analyzed using ^1H NMR. […] Ultra performance liquid chromatograph tandem mass spectrometry (UPLC/MS/MS) was conducted to compare formed by-products against nine known cannabinoid standards.
Popular types of consumer cannabis products include tinctures, vaporizer liquids, and baked foods, while potential pharmaceutical products include oil extracts, solutions, and tablet. In each case, cannabinoids within the products are subjected to elevated temperatures for short periods of time during manufacturing or, in the case of vaporizer liquids, when being consumed. FIGS. 5-6 show the rates of degradation after short-term exposure to temperatures from 150-220° C. Table 1 includes the values of onset temperatures for thermal degradation and degradation rates for each compound. The phytocannabinoids degraded at rates from 0.2 wt % per minute to ˜10 wt % per minute at 150° C. and 220° C., respectively. Thermal degradation of both poly(cannabinoid)s remained less than 0.1 wt % over the same range, stabilizing the phytocannabinoid. Open vials containing 100 mg samples of CBD, CBD-diacetate, and poly(CBD-adipate) were heated at 175° C. in a laboratory convection oven for 30 minutes, after which 89.64 mg, 91.35, and 99.86 mg remained of each sample, respectfully. […]. Conversion of phytocannabinoids to poly(cannabinoid)s offers a preservative effect, eliminating the production of additional cannabinoids.

Data set [3] can be described thus: Isothermal degradation by TGA in the presence of oxygen. Particulars: 60 minutes. Here is the method:
as §1
Isothermal degradation: Samples were heated in pre-tared pans while in the presence of oxygen to either 150, 160, 180 or 220° C. at a heating rate of 10° C./minute. They were left at the high temperature for 60 minutes. The degradation rate was determined from the slope of the weight % vs Time plots.

[4] abbreviates: nitrogen atmosphere, heated to 700° C. at 10° C./minute.
Setting [5] is: heated under the same conditions after purging thoroughly with argon.

As for `C=C(C)[C@@H]1CCC(C)=C[C@H]1c1c(O)cc(CCCCC)cc1O` [CBD, cannabidiol], the “Td, onset for thermal degradation according to non-isothermal TGA” value (“Td, onset … to non-isothermal TGA” below) in data set [1] (setting [4]) turned out to be 184 °C. Moreover, the “extrapolated onset degradation temperature (TGA)” value in data set [1] (non-isothermal TGA, FIGS. 3-4) is 184 °C. For the same compound, the “remaining residue after heating” value in data set [2] is given as 89.64 mg. The “NMR analysis of the sample residues after heating” value in data set [2] is “New peaks formed; also recorded: formation of additional compounds”. Also, the “amount of by-product formation (LC/MS)” value in data set [2] is recorded as 10.68%. Moreover, in data set [2] (setting [5]), the “Δ8-THC detected using 1H NMR” value stood at 0.21%. In data set [2] (setting [5]), the “Δ9-THC detected using 1H NMR” value is recorded as 0.16%. In addition, the “Degradation rate from isothermal TGA” value in data set [3] (150° C.) is recorded as 0.18 weight % loss per minute; in data set [3] (160° C.), 0.43 weight % loss per minute; in data set [3] (180° C.), 0.94 weight % loss per minute; in data set [3] (220° C.) it was 9.09 weight % loss per minute.
With `C=C(C)[C@@H]1CCC(C)=C[C@H]1c1c(OC(C)=O)cc(CCCCC)cc1OC(C)=O` [CBD-Diacetate, Cannabidiol-Diacetate], the “Td, onset … to non-isothermal TGA” value in data set [1] (setting [4]) is 185 °C. Also, in data set [1] (non-isothermal TGA, FIGS. 3-4), the “extrapolated onset degradation temperature (TGA)” value was 185 °C. Further, the “remaining residue after heating” value in data set [2] was 91.35 mg. For the same compound, the “NMR analysis of the sample residues after heating” value was “New peaks formed” in data set [2] and “formation of additional compounds” in data set [2] (listed as CBD-diacetate). Moreover, in data set [2], the “amount of by-product formation (LC/MS)” value came out at 25.32%. In addition, the “Degradation rate from isothermal TGA” value in data set [3] (150° C.) was 0.54 weight % loss per minute; in data set [3] (160° C.) it was 0.54 weight % loss per minute; in data set [3] (180° C.), 0.84 weight % loss per minute; in data set [3] (220° C.), 5.65 weight % loss per minute.
As to `CCCCCc1cc(O)c(C/C=C(\C)CCC=C(C)C)c(O)c1` [CBG, cannabigerol], in data set [1], the “Td, onset … to non-isothermal TGA” value was 191 °C and the “extrapolated onset degradation temperature (TGA)” value was 191 °C.
Take `CCCCCc1cc(OC(C)=O)c(C/C=C(\C)CCC=C(C)C)c(OC(C)=O)c1` [CBG-Diacetate, Cannabigerol-Diacetate]: the “Td, onset … to non-isothermal TGA” value in data set [1] (setting [4]) was determined as 223 °C. Moreover, the “Degradation rate from isothermal TGA” value in data set [3] (150° C.) was found to be 0.08 weight % loss per minute; in data set [3] (160° C.) it was 0.11 weight % loss per minute; in data set [3] (180° C.), 0.49 weight % loss per minute; in data set [3] (220° C.) it was 1.92 weight % loss per minute.
